Like-named read-outs stand apart in the source and are kept apart here.
Columns and labels:
Assay type in all cases: in vivo
[1] = system: weeds ABUTH, AMATA, AMBEL, CHEAL, ERICA; assay: Postemergence herbicide evaluation, overall average % weed control (ABUTH, AMATA, AMBEL, CHEAL, ERICA); details: post-emergence, read-out: Overall Ave % Weed Control; for pest or weed control at 560 g/ha: 560 g ae/ha; for pest or weed control at 280 g/ha: 280 g ae/ha
[2] = system: Amaranthus rudis (AMATA), tall water hemp; assay: Postemergence herbicide evaluation, growth of Amaranthus rudis (AMATA); details: Amaranthus tuberculatus, post-emergence, read-out: Ave. AMATA, percent reduction in plant size relative to the untreated control; for pest or weed control at 560 g/ha: 560 g ae/ha; for pest or weed control at 280 g/ha: 280 g ae/ha
[3] = system: Chenopodium album (CHEAL), common lambsquarters; assay: Postemergence herbicide evaluation, growth of Chenopodium album (CHEAL); details: Chenopodium album, post-emergence, read-out: Ave. CHEAL, percent reduction in plant size relative to the untreated control; for pest or weed control at 560 g/ha: 560 g ae/ha; for pest or weed control at 280 g/ha: 280 g ae/ha
[4] = system: Ambrosia artemisiifolia (AMBEL), common ragweed; assay: Postemergence herbicide evaluation, growth of Ambrosia artemisiifolia (AMBEL); details: Ambrosia artemisiifolia, post-emergence, read-out: AVE. AMBEL, percent reduction in plant size relative to the untreated control; for pest or weed control at 560 g/ha: 560 g ae/ha; for pest or weed control at 280 g/ha: 280 g ae/ha
[5] = system: glyphosate resistant Conyza canadensis (L.) (ERICA), horseweed; assay: Postemergence herbicide evaluation, growth of Conyza canadensis (ERICA); details: Erigeron canadensis, post-emergence, read-out: Ave. ERICA, percent reduction in plant size relative to the untreated control; for pest or weed control at 560 g/ha: 560 g ae/ha; for pest or weed control at 280 g/ha: 280 g ae/ha
[6] = system: Abutilon theophrasti (ABUTH), velvetleaf; assay: Postemergence herbicide evaluation, growth of Abutilon theophrasti (ABUTH); details: Abutilon theophrasti, post-emergence, read-out: AVE. ABUTH, percent reduction in plant size relative to the untreated control; for pest or weed control at 560 g/ha: 560 g ae/ha; for pest or weed control at 280 g/ha: 280 g ae/ha

Row | SMILES | pest or weed control at 560 g/ha ([1]; 168 h, 7 DAA) | pest or weed control at 560 g/ha ([1]; 336 h, 14 DAA) | pest or weed control at 560 g/ha ([1]; 504 h, 21 DAA) | pest or weed control at 560 g/ha ([2]; 168 h, 7 DAA) | pest or weed control at 560 g/ha ([2]; 336 h, 14 DAA) | pest or weed control at 560 g/ha ([2]; 504 h, 21 DAA) | pest or weed control at 560 g/ha ([3]; 168 h, 7 DAA) | pest or weed control at 560 g/ha ([3]; 336 h, 14 DAA) | pest or weed control at 560 g/ha ([3]; 504 h, 21 DAA) | pest or weed control at 560 g/ha ([4]; 168 h, 7 DAA) | pest or weed control at 560 g/ha ([4]; 336 h, 14 DAA) | pest or weed control at 560 g/ha ([4]; 504 h, 21 DAA) | pest or weed control at 560 g/ha ([5]; 168 h, 7 DAA) | pest or weed control at 560 g/ha ([5]; 336 h, 14 DAA) | pest or weed control at 560 g/ha ([5]; 504 h, 21 DAA) | pest or weed control at 560 g/ha ([6]; 168 h, 7 DAA) | pest or weed control at 560 g/ha ([6]; 336 h, 14 DAA) | pest or weed control at 560 g/ha ([6]; 504 h, 21 DAA) | pest or weed control at 280 g/ha ([1]; 168 h, 7 DAA) | pest or weed control at 280 g/ha ([1]; 336 h, 14 DAA) | further results
1 | COc1ccc(/C=N/OC(=O)COc2ccc(Cl)cc2Cl)cc1 [Compound A31] | 68.5% | 83% | 86.4% | 75% | 96% | 67.5% | 82.5% | 97% | 96% | 62.5% | 75% | 100% | 82.5% | 89.5% | 98.5% | 40% | 57.5% | 70% |  |  | 
2 | O=C(COc1ccc(Cl)cc1Cl)Nc1c(Cl)c(F)nc(F)c1Cl [Compound D25] | 21.2% | 10.5% | 8% | 7.5% | 25% | 2.5% | 45% | 7.5% | 15% | 40% | 7.5% | 7.5% | 10% | 12.5% | 12.5% | 3.5% | 0% | 2.5% | 16.5% | 10% | pest or weed control at 280 g/ha ([1]; 504 h, 21 DAA): 7.5%; pest or weed control at 280 g/ha ([2]; 168 h, 7 DAA): 5%; pest or weed control at 280 g/ha ([2]; 336 h, 14 DAA): 15%; pest or weed control at 280 g/ha ([2]; 504 h, 21 DAA): 5%; pest or weed control at 280 g/ha ([3]; 168 h, 7 DAA): 35%; pest or weed control at 280 g/ha ([3]; 336 h, 14 DAA): 0%; pest or weed control at 280 g/ha ([3]; 504 h, 21 DAA): 12.5%; pest or weed control at 280 g/ha ([4]; 168 h, 7 DAA): 35%; pest or weed control at 280 g/ha ([4]; 336 h, 14 DAA): 15%; pest or weed control at 280 g/ha ([4]; 504 h, 21 DAA): 10%; pest or weed control at 280 g/ha ([5]; 168 h, 7 DAA): 7.5%; pest or weed control at 280 g/ha ([5]; 336 h, 14 DAA): 20%; pest or weed control at 280 g/ha ([5]; 504 h, 21 DAA): 10%; pest or weed control at 280 g/ha ([6]; 168 h, 7 DAA): 0%; pest or weed control at 280 g/ha ([6]; 336 h, 14 DAA): 0%; pest or weed control at 280 g/ha ([6]; 504 h, 21 DAA): 0%
3 | O=C(COc1ccc(Cl)cc1Cl)Oc1cccnn1 [Compound E2] | 74% | 89% | 93% | 73% | 83% | 84% | 75% | 88% | 94% | 63% | 95% | 99% | 73% | 85% | 90% | 85% | 93% | 98% | 72% | 83% | pest or weed control at 280 g/ha ([1]; 504 h, 21 DAA): 86%; pest or weed control at 280 g/ha ([2]; 168 h, 7 DAA): 78%; pest or weed control at 280 g/ha ([2]; 336 h, 14 DAA): 80%; pest or weed control at 280 g/ha ([2]; 504 h, 21 DAA): 83%; pest or weed control at 280 g/ha ([3]; 168 h, 7 DAA): 65%; pest or weed control at 280 g/ha ([3]; 336 h, 14 DAA): 63%; pest or weed control at 280 g/ha ([3]; 504 h, 21 DAA): 63%; pest or weed control at 280 g/ha ([4]; 168 h, 7 DAA): 63%; pest or weed control at 280 g/ha ([4]; 336 h, 14 DAA): 90%; pest or weed control at 280 g/ha ([4]; 504 h, 21 DAA): 94%; pest or weed control at 280 g/ha ([5]; 168 h, 7 DAA): 70%; pest or weed control at 280 g/ha ([5]; 336 h, 14 DAA): 88%; pest or weed control at 280 g/ha ([5]; 504 h, 21 DAA): 94%; pest or weed control at 280 g/ha ([6]; 168 h, 7 DAA): 85%; pest or weed control at 280 g/ha ([6]; 336 h, 14 DAA): 93%; pest or weed control at 280 g/ha ([6]; 504 h, 21 DAA): 98%

From patent publication US20260042731A1, “(2,4-DICHLOROPHENOXY)ACETIC ACID ANALOGS” (CORTEVA AGRISCIENCE LLC, priority 2022, published 2026)
